Results from patent publication US7829728B2, “Diarymethyl and related compounds” (Theravance, Inc., priority 2003, dated 2010).
pEC50: −log10 of the molar value.

Tests used:
[1] = target: T1, human β2 adrenergic receptor (Homo sapiens, UniProt P07550); assay: Radioligand binding assay for human β2 adrenergic receptor (Assay Test Procedure A); parameters: expressed in transfected cells; host or cells: CHO cells, membranes; details: receptor subtype selectivity, human β1 versus β2
Description: Chinese hamster ovarian (CHO) cell lines stably expressing cloned human β1, β2 or β3 adrenergic receptors, respectively, were grown to near con fluency in Hams F-12 media with 10% FBS in the presence of 500 μg/mL Geneticin. The cell monolayer was lifted with 2 mM EDTA in PBS. Cells were pelleted by centrifugation at 1,000 rpm, and cell pellets were either stored frozen at −80° C. or membranes were prepared immediately for use. For preparation of β1 and β2 receptor expressing membranes, cell pellets were re-suspended in lysis buffer (10 mM HEPES/HCl, 10 mM EDTA, pH 7.4 at 4° C.) and homogenized using a tight-fitting Dounce glass homogenizer (30 strokes) on ice. […] The protein concentration of the membrane suspension was determined by the methods described in Lowry et al., 1951, Journal of Biological Chemistry, 193, 265; and Bradford, Analytical Biochemistry, 1976, 72, 248-54. […]
Binding assays were performed in 96-well microtiter plates in a total assay volume of 100 μL with 10-15 μg of membrane protein containing the human β1, β2 or β3 adrenergic receptors in assay buffer (75 mM Tris/HCl pH 7.4 at 25° C., 12.5 mM MgCl2, 1 mM EDTA, 0.2% BSA). […] Non-specific binding was determined in the presence of 10 μM propranolol. […] Filter plates were washed three times with filtration buffer (75 mM Tris/HCl pH 7.4 at 4° C., 12.5 mM MgCl2, 1 mM EDTA) to remove unbound radioactivity. […]

[2] = target: T1, human β2 adrenergic receptor; assay: Whole-cell cAMP Flashplate assay in CHO cell lines heterologously expressing human β2 adrenergic receptor (Assay Test Procedure C); format: cell-based; parameters: expressed in transfected cells; host or cells: CHO cells, membranes
Description: cAMP assays were performed in a radioimmunoassay format using the Flashplate Adenylyl Cyclase Activation Assay System with [^125I]-cAMP (NEN SMP004, PerkinElmer Life Sciences Inc., Boston, Mass.), according to the manufacturers instructions. For the determination of β receptor agonist potency (EC50), CHO-K1 cell lines stably expressing cloned human β1, β2 or β3 adrenergic receptors were grown to near confluency in HAM's F-12 media supplemented with 10% FBS and Geneticin (250 μg/mL). Cells were rinsed with PBS and detached in dPBS (Dulbecco's Phosphate Buffered Saline, without CaCl2 and MgCl2) containing 2 mM EDTA or Trypsin-EDTA solution (0.05% trypsin/0.53 mM EDTA). After counting cells in Coulter cell counter, cells were pelleted by centrifugation at 1,000 rpm and re-suspended in stimulation buffer containing IBMX (PerkinElmer Kit) pre-warmed to room temperature to a concentration of 1.6×10^6 to 2.8×10^6 cells/mL. About 60,000 to 80,000 cells per well were used in this assay. […] The amount of cAMP produced (pmol/well) was calculated based on the counts observed for the samples and cAMP standards as described in the manufacturer's user manual. Data were analyzed by nonlinear regression analysis with the GraphPad Prism Software package (GraphPad Software, Inc., San Diego, Calif.) with the sigmoidal equation. […]

T1 sequence (P07550 whole entry): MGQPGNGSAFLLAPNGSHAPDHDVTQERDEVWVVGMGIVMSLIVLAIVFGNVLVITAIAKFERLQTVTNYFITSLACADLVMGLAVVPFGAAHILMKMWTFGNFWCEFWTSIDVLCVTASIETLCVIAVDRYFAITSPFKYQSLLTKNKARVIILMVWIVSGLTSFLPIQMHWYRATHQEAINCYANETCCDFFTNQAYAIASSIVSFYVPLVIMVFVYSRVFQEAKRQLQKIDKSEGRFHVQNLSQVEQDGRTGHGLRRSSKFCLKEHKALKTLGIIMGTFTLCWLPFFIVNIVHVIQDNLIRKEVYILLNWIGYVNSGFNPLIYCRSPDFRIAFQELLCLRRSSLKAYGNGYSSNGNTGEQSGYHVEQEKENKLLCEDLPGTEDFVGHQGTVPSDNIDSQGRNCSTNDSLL

NC(=O)C(c1ccccc1)(c1ccccc1)[C@@H]1CCN(CCCCCCCCCNCC(O)c2ccc(O)c3[nH]c(=O)ccc23)C1 (mixture of isomers) [Example 1, 2-((S)-1-{9-[2-Hydroxy-2-(8-hydroxy-2-oxo-1,2-dihydroquinolin-5-yl)ethylamino]-nonyl}pyrrolidin-3-yl)-2,2-diphenylacetamide]
ratio of Ki(β1)/Ki(β2) [1]: greater than 8
pEC50 ([2]; cAMP, CHO-K1 cells expressing cloned human β2 receptor): > 8.00
ratio of EC50(β1)/EC50(β2) ([2]; receptor subtype selectivity, functional cAMP, human β1 versus β2): greater than 10
